# Source: ChEMBL document CHEMBL1821596, “Isolation and structural identification of a direct-acting mutagen derived from N-nitroso-N-methylpentylamine and Fenton's reagent with copper ion” (Bioorg Med Chem, 2011)
# Experiments:
# Assay type in all cases: toxicity, organism-based
# Details in all cases: salmonella enterica subsp. enterica serovar typhimurium
# Salmonella typhimurium [1] = assay: Mutagenic activity in Salmonella Typhimurium TA1535 at 100 uM after 2 hrs by plate-incorporating method in presence of Cu2+-H2O2
# Salmonella typhimurium [2] = assay: Mutagenic activity in Salmonella Typhimurium TA1535 at 100 uM after 2 hrs by plate-incorporating method in presence of H2O2
# Salmonella typhimurium [3] = assay: Mutagenic activity in Salmonella Typhimurium TA1535 at 100 uM after 2 hrs by plate-incorporating method in presence of Cu2+-Fe2+
# Salmonella typhimurium [4] = assay: Mutagenic activity in Salmonella Typhimurium TA1535 at 100 uM after 2 hrs by plate-incorporating method in presence of Fe2+-H2O2
# Salmonella typhimurium [5] = assay: Mutagenic activity in Salmonella Typhimurium TA1535 at 100 uM after 2 hrs by plate-incorporating method in presence of Fe2+-Cu2+-H2O2 and nitric oxide
# Salmonella typhimurium [6] = assay: Mutagenic activity in Salmonella Typhimurium TA1535 at 100 uM after 2 hrs by plate-incorporating method in presence of Fe2+-Cu2+-H2O2
# Salmonella typhimurium [7] = assay: Mutagenic activity in Salmonella Typhimurium TA1535 at 100 uM after 2 hrs by plate-incorporating method
SMILES,Activity (Salmonella typhimurium [1]),Activity (Salmonella typhimurium [2]),Activity (Salmonella typhimurium [3]),Activity (Salmonella typhimurium [4]),Activity (Salmonella typhimurium [5]),Activity (Salmonella typhimurium [6]),Activity (Salmonella typhimurium [7])
CCCCCN(C)N=O,Toxic,Non-toxic,Non-toxic,Non-toxic,Toxic,Toxic,
CCC1([N+](=O)[O-])CCN=[N+]1[O-] (configuration not stated),,,,,,,Toxic
